# Experimental data from US8623889B2, “Substituted 6,6-fused nitrogenous heterocyclic compounds and uses thereof” (Genentech, Inc., priority 2010, dated 2014).
# Tests used:
# [1] = tested on: HL-60 cells; assay: HL-60 cell proliferation assay (CellTiter-Glo); assay type: cell-based; conditions: 4 days incubation
# From the text: HL-60 cells are a Philadelphia Chromosome Negative (Ph-) cell line that serve as a control for the K-562 proliferation assay. Compounds that exert their activity by inhibition of Abl kinase should not inhibit proliferation of HL-60 cells unless such activity is due to off-target activity. This assay determines the number of viable cells in a culture by quantification of ATP. Promega's CellTiter-Glo® Luminescent Cell Viability Assay (CTG) is the reagent used for this determination. The assay is homogenous. Addition of the CTG reagent results in cell lysis and generation of a luminescent signal through the luciferase reaction. The luminescent signal is proportional to the amount of ATP present. For compounds that interfere with cell division and/or have effects on cell size, the readout is not necessarily proportional to cell number/viability. […] Cytostatic: Luminescence counts should be equivalent to counts obtained from a Day 0 read; and Cytotoxic: Luminescence counts should be equivalent to background. • Seed cells at 20000 cells/well in 20 ul cell plating media into a 384 well cell plate. […] Incubate in humidified CO2 incubator • Day 4a: Add 40 uL of Cell Titer-Glo solution • Day 4b: Incubate CTG reaction • Day 4c: Read luminescence
# [2] = tested on: K-562 cells; assay: K-562 cell proliferation assay (CellTiter-Glo); assay type: cell-based; conditions: Homo sapiens, K562, 96 h; expected value of assay standard; 4 days incubation; read-out: EC50 to inhibit K-562 cell growth
# From the text: The luminescent signal is proportional to the amount of ATP present.
structure (smiles),measurement,setting,value
CS(=O)(=O)O.Cc1ccc(NC(=O)c2ccc(CN3CCN(C)CC3)cc2)cc1Nc1nccc(-c2cccnc2)n1 [CAS NO 220127-57-1],EC50 to inhibit HL-60 cell growth (in words),[1]; expected result of assay standard,Inactive
COC(=O)Nc1nc2ccc(C(=O)c3cccs3)cc2[nH]1 [Nocodazole],EC50,"[1]; Homo sapiens, HL-60, 96 h, expected value of assay standard, read-out: EC50 to inhibit HL-60 cell growth",~0.04 µM
same,EC50,[2],~0.04 µM
